We go through one compound from PMC10398685 (ACS Omega, 2023).

Data set [1] concerns the target SARS-CoV-2 nsp14 7-N MTase (Severe acute respiratory syndrome coronavirus 2, UniProt P0DTD1). The experiment in a line: biochemical. The note with it: Echo MS assay, 20 nM nsp14, 4 μM SAM, 4 μM GpppA, duplicates.
Data set [2] can be described thus: Steady-state intracellular uptake in VERO-E6 cells. It counts as in vitro ADME. The note with it: African green monkey, VERO-E6 cells; VERO-E6, 60 min incubation, 50 μM at t = 0; read-out: Kp (intracellular accumulation ratio IC/EC). The source says: (§1) While an enzymatic MTase assay represents a valuable fast screening platform providing the information that can be directly used for SAR analyses, it is not fully predictive for the compounds’ activity in whole cells. In order to verify the ability of the compounds to reach the intracellular compartment, we measured the steady-state accumulation of representative compounds in intact CCRF-CEM, VERO-E6, and Calu-3 cells (Tables 3 and S2). […] Compound 12q was almost completely cleared from the medium after 60 min incubation with the cells rendering it among the most permeable compounds of the series based on Kp values. It should be noted that the apparent intracellular concentration of the compounds may be biased by their potential metabolism. Therefore, we decided to subject the selected derivatives to in vitro stability studies. […]
(§2) 3.3. Intracellular Uptake
(§3) Steady-state cellular uptake was measured in CCRF-CEM cells (ATCC, CRL-119), VERO-E6 cells (ATCC, CRL-1586) and Calu-3 cells (HTB-55), respectively. […]
(§4) The medium was stored at −20 °C […]
(§5) for later analysis of the extracellular concentration of the compounds. The cells were washed two times with 1 mL PBS (900 x g, 5 min, +4 °C), and also stored at −20 °C for subsequent analysis of the intracellular concentration of the compounds. At the day of the analysis, both media and the pelleted cells were quickly thawed. The cell pellets were extracted with 200 μL of ice-cold methanol by vigorous shaking, further diluted 1:1 with water and centrifuged at 20 000 x g for 10 min. As for the media samples, 10 μL aliquots were extracted with 990 μL of 50% methanol. The samples were then transferred to ECHO® -compatible 384-well plates and the amount of analytes were quantified by the ECHO -MS® System (Sciex) where acoustic droplet ejection module is coupled with Sciex 6500® triple quadrupole mass spectrometer operating with an electrospray ionization source. Spectrometer was run in the multiple reaction monitoring (MRM) mode. When necessary, the processed samples were further diluted in 50% methanol to fit in the calibration range. Calibration curves of the compounds in 50% methanol were measured alongside the samples within the same run. The ra tio between the total compound concentration in the cells and compound concentration in the medium (K p) at t=60 min was calculated according to: Kp = (Acell / Vcell) / Cmedium, where Acell is the amount of compound in the cell lysate, Vcell is the CCRF-CEM cell volume (3.38 μL/10^7 cells)16 and Cmedium is the compound concentration in the medium sample after correcting for sample dilution. Experiments were performed in duplicates.
(§6) For adherent cells (Vero E6 and Calu-3), the workflow was modified as follows: Cells were seeded on 6-well plates at a concentration of […] and 8.2 x 10^5 cells/well for Vero E6 and Calu-3, respectively, in 3 mL of serum-free culture media. The cells were left to attach overnight, the medium was then aspirated and replenished with 2 mL of fresh media containing the compounds (50 µM final conc). After 60 min at 37 °C the media was aspirated and the cells were washed twice with 1 mL of PBS. Then, 1 mL of fresh PBS was added and the cells were subjected to three freeze-thaw cycles and further diluted with 1:1 with MeOH. The cell lysates and the media were further processed as described above. Intracellular volume of Vero E6 and Calu-3 cells (8.6 and 14 μL/107 cells, respectively) was calculated from their diameter determined by cell counter (Luna FL) while in suspension (following the trypsinization) assuming the homogenous spheres.

For the next data set, the system named is VERO-E6 cells. The experiment in a line: Steady-state intracellular uptake in VERO-E6 cells. It counts as in vitro ADME. The note with it: VERO-E6, 60 min incubation, 50 μM at t = 0.
Description: as §1, §2, §3, §4, §5, §6

Data set [3] is described as follows: Microsomal stability, human. The note with it: triplicates. It counts as in vitro ADME. The text has this: 50% methanol. The samples were then transferred to ECHO® -compatible 384-well plates and the amount of analytes were quantified by the ECHO -MS® System (Sciex) where acoustic droplet ejection module is coupled with Sciex 6500® triple quadrupole mass spectrometer operating with an electrospray ionization source. Spectrometer was run in the multiple reaction monitoring (MRM) mode. When necessary, the processed samples were further diluted in 50% methanol to fit in the calibration range. Calibration curves of the compounds in 50% methanol were measured alongside the samples within the same run. […]
3.4. Microsomal stability […]
The reactions were […]
terminated by the addition of four volumes of ice-cold methanol, mixed vigorously and left at -20 °C for 1 h. After that, the samples were centrifuged and the supernatants were analyzed by means of ECHO-MS® System (Sciex, Framingham, MA, USA). Zero time points were prepared by adding ice-cold methanol to the mixture of compound with cofactors prior to the addition of microsomes. The microsomal half-lives (t1/2) were calculated using the equation t1/2=0.693/k, where k is the slope found in the linear fit of the natural logarithm of the fraction remaining of the parent compound vs. incubation time. Intrinsic clearance (CLint) was calculated using the following formula: CLint = V * ln2 /t1/2, where V = incubation volume per milligram of microsomal protein (µL/mg) and t1/2 = microsomal half-life. […]
3.6. Caco-2 permeability assay
Transepithelial bi-directional transport of tested compounds (5 µM, pH 7.4/7.4) across the Caco-2 monolayers was studied using the BD BioCoat HTS Caco -2 assay system (BD Biosciences, Bedford, MA) as described in detail elsewhere.17 Aliquots were collected from the donor and acceptor compartment at the end of transport period (3 h), integrity of monolayers were verified using Lucifer Yellow dye and the compounds were quantified using LC-MS/MS (Sciex 6500® triple quadrupole). The apparent permeability coefficient (Papp) was calculated from the following equation: Papp = (dQ / dt) / C0 * A, where dQ/dt is the rate of absorption of the drug across the cells, C0 is the donor compartment concentration at time zero, and A is the area of the monolayer. Efflux ratio was expressed as (Papp B-A) / (Papp A-B). Recovery (%) was determined as (total compound mass in donor and receiver compartments at the end of the incubation / initial compound mass in the donor compartment) x 100.

A short description of data set [4]: Microsomal stability, mouse. The note with it: triplicates. It counts as in vitro ADME.
In a further data set the test system is SARS-CoV-2. Description: microbe, parasite or virus in culture. Type of data set: cell-based. The note with it: Severe acute respiratory syndrome coronavirus 2, 72 h; Calu-3 cells, MOI~0.03, 3 days incubation, CPE by XTT; read-out: EC50 (anti-SARS-CoV-2 activity).
Another data set can be described thus: in vitro. As to conditions: human.

In data set [1], `CCN(C[C@H]1O[C@@H](n2cc(C#Cc3cccnc3)c3c(N)ncnc32)[C@H](O)[C@@H]1O)S(=O)(=O)c1ccc(OC)c(C#N)c1` [Compound 12l] had an IC50 of 0.038 ± 0.0059 µM. The Kp at 1 h, 50 µM in data set [2] came to 225. In addition, the “EC (extracellular concentration in the media at t = 60 min) ± sd” value in the data set on VERO-E6 cells was found to be 17.1 ± 2.9 µM. The “Microsomal stability Rem. at 45 min” value in data set [3] (0.5 mg/ml human microsomes, 5uM) worked out at 78.6 ± 1.1%; in data set [4] (0.5 mg/ml mouse microsomes, 5uM), 37.4 ± 0.5%. For the same compound, the microsomal CLint at 5 µM was 11.2 ± 1.5 µL/min/mg in data set [3] (pooled liver microsomes, pH 7.4, 0.5 mg/ml human microsomes) and 40.9 ± 0.8 µL/min/mg in data set [4] (pH 7.4, 0.5 mg/ml mouse microsomes). Besides, the half-life at 5 µM in data set [3] (pooled liver microsomes, pH 7.4, 0.5 mg/ml human microsomes, read-out: Microsomal stability T1/2) came out at 1.89 ± 0.0583 h; in data set [4] (pH 7.4, 0.5 mg/ml mouse microsomes, read-out: Microsomal stability T1/2) it was 0.562 ± 0.0117 h. For the same compound, the EC50 in the data set with SARS-CoV-2 was more than 100 µM. For the same compound, in “in vitro”, the CC50 at 3 days was more than 100 µM.
